Data published in patent US9464064B2, “HCV helicase inhibitors and methods of use thereof” (University of Kansas, priority 2011, dated 2016).
Read-outs that look alike come from different tables or passages of the source.

Experiments:
[1] = target: T1, HCV NS3 helicase NS3h_1b(con1) (Hepatitis C virus genotype 1b, UniProt Q9WMX2); assay: biochemical; assay type: biochemical, hepatitis C virus genotype 1b(con1)
T1 construct: truncated C-terminally His-tagged NS3 proteins lacking the N-terminal protease, called NS3h; His-tag (C); made in house
Text: All oligonucleotides were purchased from Integrated DNA Technologies (IDT, Coralville, Iowa). The partially duplex DNA substrates used in MBHAs consisted of a helicase substrate forming 25 base pairs and consists of a 45-mer bottom strand 5′-GCTCCCCGTTCATCGATTGGGGAGC(T)20-3′ (SEQ ID NO:1) and the 25-mer HCV top strand 5′-Cy5-GCTCCCCAATCGATGAACGGGGAGC-IBRQ-3′ (SEQ ID NO:2). The 19 base pair RNA substrate used in MBHAs was composed of a 39 nucleotide long bottom strand 5′-AGU GCC UUG ACG AUA CAG C(U)20-3′ (SEQ ID NO:3) and the 24 nucleotide long top strand 5′-Tye^665-AGUGCGCUGUAUCGUCAAGGCACU-IBRQSp-3′ (SEQ ID NO:4). Underlined areas denote hairpin-forming regions. DNA and RNA substrates were annealed and purified as described previously (Belon & Frick (2008) BioTechniques 45:433-40, 442).
The cloning, expression, and purification of His-tagged recombinant HCV NS3 protein have been described previously (Lam, et al. (20030 J. Virol. 77:3950-61; Heck, et al. (2008) Antimicrob. Agents Chemother. 52:1901-11; Frick et al. (2010) Methods Mol. Biol. 587:223-233; Belon, et al. & Frick (2009) J. Mol. Biol. 388:851-864).
All molecular beacon-based helicase assays (MBHAs) were performed according to known methods (Belon & Frick (2008) supra; Belon & Frick (2009) supra). […] In each flat, black 384-well plate, 56 compounds were tested, in triplicate, along with three negative controls (DMSO only), three positive controls (500 nM dT20), and two wells with no enzyme. Fluorescence was read before ATP (F0) addition and 30 minutes after ATP was added to 1 mM (F30) using a Tecan Infinite M200 fluorescence microplate reader with excitation and emission wavelengths set to 643 and 670 nm, respectively. Percent inhibition was calculated with equation 1, and compound interference in the MBHA was calculated with equation 2.
To monitor helicase reaction kinetics and to calculate IC50 values, MBHAs were performed in 60 μL in white ½ area 96-well plates and measured in a Thermo Varioscan Multimode reader (Thermo Scientific) using the 643 nm excitation wavelength and 667 emission wavelengths. Reactions were again performed by first incubating all components except for ATP for two minutes, then initiated by injecting in 1/10 volume of ATP such that the final concentration of all components was as noted above. Conditions were as described above except that 5% v/v DMSO was present in each assay. Initial reaction velocities were calculated by fitting first-order decay equation to data obtained after ATP addition and calculating an initial velocity form the resulting amplitude and rate constant.
[formula] where, v0 is the velocity observed in DMSO-only controls inhibition, h is the Hillslope coefficient, [I] is the concentration of test compound.

MBHA DNA substrate = assay: Modified FID assay, SYBR Green I; assay type: binding; conditions: for DNA binding (%): SYBR Green I-FID, average (±SD) percent bound at 100 μM
Procedure: A modified FID assay, in which ethidium bromide was replaced with SYBR Green I (Invitrogen), was used to estimate a compounds affinity for the MBHA substrate. Reactions were performed as described above except that the DNA substrate was present at 0.32 μM, ethidium bromide was absent, and SYBER Green was present at (0.68 μM). Data were normalized as described above and fit to concentration-response equation using GraphPad Prism software. Titrations with each compound were performed in triplicate, and EC50 values from three independent titrations are reported ±standard deviations.

[2] = MBHA, DNA unwinding, mean ± SD of three titrations, read-out: Helicase IC50
[3] = genotype 1b (con1), read-out: Target Potency MBHA (IC50 avg., μM) 1b (con1)
[4] = standard HCV helicase MBHA (Table 9), read-out: DNA Unwinding IC50
[5] = SYBR Green, read-out: FID (SG) EC50 (converted)

T1 sequence (Q9WMX2 1192-1657): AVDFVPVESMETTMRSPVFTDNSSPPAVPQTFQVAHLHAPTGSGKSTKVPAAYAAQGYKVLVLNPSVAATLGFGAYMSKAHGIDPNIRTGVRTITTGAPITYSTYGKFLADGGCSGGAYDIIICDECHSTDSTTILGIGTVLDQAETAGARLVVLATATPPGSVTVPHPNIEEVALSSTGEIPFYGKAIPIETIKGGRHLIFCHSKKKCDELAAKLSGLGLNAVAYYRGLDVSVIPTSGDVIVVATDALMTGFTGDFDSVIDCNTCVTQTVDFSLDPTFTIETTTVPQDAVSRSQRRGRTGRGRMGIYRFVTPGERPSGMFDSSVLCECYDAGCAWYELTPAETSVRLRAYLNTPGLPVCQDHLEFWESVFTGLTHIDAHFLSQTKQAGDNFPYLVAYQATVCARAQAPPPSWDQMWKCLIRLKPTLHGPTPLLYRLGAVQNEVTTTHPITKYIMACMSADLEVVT

Row | SMILES | IC50 [1, 2] [µM] | IC50 [1, 3] [µM] | IC50 [1, 4] [µM] | DNA binding (%) (MBHA DNA substrate) | FID (SG) % Displaced @ 100 μM (MBHA DNA substrate; SYBR Green) [%] | EC50 (MBHA DNA substrate; [5]) [µM] | EC50 (MBHA DNA substrate; FID, mean ± SD, read-out: DNA Binding (SYBR Green I) EC50) [µM]
1 | Cc1ccc2nc(-c3ccc4nc(-c5ccc(NC(=O)c6ccc(C(F)(F)F)c(F)c6)cc5)sc4c3)sc2c1S(=O)(=O)O [Compound 23, 2′-(4-(3-fluoro-4-(trifluoromethyl)benzamido)phenyl)-6-methyl-[2,6′-bibenzo[d]thiazole]-7-sulfonic acid] | 17 ± 17 | 17.4 ± 17 | 17 ± 17 | 66 ± 18 | 66 ± 18 | 28 ± 28 | –
2 | Cc1ccc2nc(-c3ccc4nc(-c5ccc(NC(=O)c6cc(F)ccc6C(F)(F)F)cc5)sc4c3)sc2c1S(=O)(=O)O [Compound 26, 2′-(4-(5-fluoro-2-(trifluoromethyl)benzamido)phenyl)-6-methyl-[2,6′-bibenzo[d]thiazole]-7-sulfonic acid] | 19 ± 15 | 19 ± 15 | 19 ± 15 | 35 ± 21 | 35 ± 21 | > 100 | –
3 | Cc1ccc2nc(-c3ccc4nc(-c5ccc(NC(=O)c6cc(F)cc(C(F)(F)F)c6)cc5)sc4c3)sc2c1S(=O)(=O)O [Compound 27, 2′-(4-(3-fluoro-5-(trifluoromethyl)benzamido)phenyl)-6-methyl-[2,6′-bibenzo[d]thiazole]-7-sulfonic acid] | 28 ± 7 | 28.4 ± 7 | – | 48 ± 17 | 48 ± 17 | > 100 | –
4 | Cc1ccc(NC(=O)Nc2ccc(-c3nc4ccc(-c5nc6ccc(C)c(S(=O)(=O)O)c6s5)cc4s3)cc2)cc1 [Compound 28, 6-methyl-2′-(4-(3-(p-tolyl)ureido)phenyl)-[2,6′-bibenzo[d]thiazole]-7-sulfonic acid] | 5.3 ± 0.9 | 5.3 ± 0.9 | 5 ± 1 | 90 ± 9 | 90 ± 9 | 18 | 13
5 | COc1ccc(S(=O)(=O)Nc2ccc(-c3nc4ccc(-c5nc6ccc(C)c(S(=O)(=O)O)c6s5)cc4s3)cc2)cc1 [Compound 29, 2′-(4-(4-methoxyphenylsulfonamido)phenyl)-6-methyl-[2,6′-bibenzo[d]thiazole]-7-sulfonic acid] | 24 ± 2.2 | 24.4 ± 2.2 | 24 ± 2 | 69 ± 4 | 69 ± 4 | 42 | –
6 | CC(=O)Nc1ccc(-c2nc3ccc(-c4nc5ccc(C)c(S(=O)(=O)O)c5s4)cc3s2)cc1 [Compound 30, 2′-(4-acetamidophenyl)-6-methyl-[2,6′-bibenzo[d]thiazole]-7-sulfonic acid] | > 100 | > 100 | 227 ± 107 | 48 ± 5 | 48 ± 5 | > 100 | –
7 | Cc1ccc2nc(-c3ccc4nc(-c5ccc(N(C)C(=O)c6ccc7ccccc7c6)cc5)sc4c3)sc2c1S(=O)(=O)O [Compound 34, 6-methyl-2′-(4-(N-methyl-2-naphthamido)phenyl)-[2,6′-bibenzo[d]thiazole]-7-sulfonic acid] | 14 ± 0.1 | 14.4 ± 0.04 | 14 | 35 ± 23 | 35 ± 23 | > 100 | –
8 | Cc1ccc2nc(-c3ccc4nc(-c5ccc(NC(=O)c6ccc7nc(-c8ccc(NC(=O)OCC9c%10ccccc%10-c%10ccccc%109)cc8)sc7c6)cc5)sc4c3)sc2c1S(=O)(=O)O.N [Compound 36] | 4 ± 2.4 | 4 ± 2.4 | 4 ± 2 | 67 ± 5 | 67 ± 5 | 22 | –
9 | Cc1ccc2nc(-c3ccc(NC(=O)c4ccc(NC(=O)c5ccccc5)cc4)cc3)sc2c1S(=O)(=O)O.N [Compound 40] | – | 81.4 ± 22 | 81 ± 22 | – | 18 ± 2 | > 100 | –
10 | Cc1ccc2nc(-c3ccc4nc(-c5ccc(NC(=O)c6ccc(CNC(=O)OCC7c8ccccc8-c8ccccc87)cc6)cc5)sc4c3)sc2c1S(=O)(=O)O.N [Compound 41] | – | 4.4 ± 0.3 | 4 | – | 53 ± 25 | 56 | –
11 | Cc1ccc2nc(-c3ccc(NC(=O)c4ccc(NC(=O)OCC5c6ccccc6-c6ccccc65)cc4)cc3)sc2c1S(=O)(=O)O.N [Compound 42] | – | 12 ± 3.7 | 12 ± 4 | – | 44 ± 2 | > 100 | –
12 | Cc1ccc2nc(-c3ccc(NC(=O)c4ccc(NC(=S)Nc5ccccc5)cc4)cc3)sc2c1S(=O)(=O)O.N [Compound 43] | – | 29 ± 6.9 | 29 ± 7 | – | 37 ± 4 | > 100 | –
13 | Cc1ccc2nc(-c3ccc(NC(=O)c4ccc(NC(=O)c5ccc(C(F)(F)F)cc5)cc4)cc3)sc2c1S(=O)(=O)O.N [Compound 44] | – | 10.4 ± 1.9 | 10 ± 2 | – | 41 ± 2 | > 100 | –
14 | Cc1ccc2nc(-c3ccc(NC(=O)c4ccc(NC(=O)Nc5ccccc5)cc4)cc3)sc2c1S(=O)(=O)O.N [Compound 45] | – | 44 ± 12 | 44 ± 12 | – | 17 ± 2 | > 100 | –
15 | Cc1ccc2nc(-c3ccc(NC(=O)c4ccc(NC(=O)c5ccc(N)cc5)cc4)cc3)sc2c1S(=O)(=O)O.N [Compound 46] | – | 30 ± 3.8 | 29 ± 4 | – | 21 | > 100 | –
16 | Cc1ccc2nc(-c3ccc4nc(-c5ccc(NC(=O)Nc6ccc(C(F)(F)F)cc6)cc5)sc4c3)sc2c1S(=O)(=O)O.N [Compound 47] | – | 5.1 ± 3.3 | 5 ± 3 | – | 84 ± 22 | 18 | –
17 | Cc1ccc2nc(-c3ccc4nc(-c5ccc(NC(=O)Nc6ccc(F)cc6)cc5)sc4c3)sc2c1S(=O)(=O)O.N [Compound 48] | – | 7.8 ± 2.2 | 8 ± 2 | – | 58 ± 3 | 74 | –
18 | Cc1ccc2nc(-c3ccc4nc(-c5ccc(NC(=O)c6cccc7ccccc67)cc5)sc4c3)sc2c1S(=O)(=O)O.N [Compound 49] | – | 4.5 ± 0.4 | 5 | – | 80 ± 3 | 30 | –
19 | Cc1ccc2nc(-c3ccc4nc(-c5ccc(NC(=S)Nc6ccccc6)cc5)sc4c3)sc2c1S(=O)(=O)O.N [Compound 50] | – | 9.3 ± 3.8 | 9 ± 4 | – | 76 ± 9 | 30 | –
20 | Cc1ccc2nc(-c3ccc(NC(=O)c4ccc(NC(=O)c5ccc(NC(=O)OCC6c7ccccc7-c7ccccc76)cc5)cc4)cc3)sc2c1S(=O)(=O)O.N [Compound 51] | – | 2.5 ± 0.5 | 3 | – | 22 | > 100 | –
21 | Cc1ccc2nc(-c3ccc4nc(-c5ccc(NC(=O)Nc6ccccc6)cc5)sc4c3)sc2c1S(=O)(=O)O.N [Compound 52] | – | 4.1 ± 1.3 | 4 ± 1 | – | 46 ± 2 | > 100 | –
22 | Cc1ccc2nc(-c3ccc4nc(-c5ccc(NCc6ccccc6)cc5)sc4c3)sc2c1S(=O)(=O)O [Compound 53] | – | 11 ± 1.6 | 11 ± 2 | – | 92 ± 4 | 27 | –
23 | Cc1ccc2nc(-c3ccc4nc(-c5ccc(NC(=O)Nc6ccc(Cl)cc6)cc5)sc4c3)sc2c1S(=O)(=O)O [Compound 54] | – | 3.6 ± 0.9 | 4 ± 1 | – | 74 ± 4 | 8 | –
